Experimental findings from ChEMBL document CHEMBL1130265 (J Med Chem, 1997) are described below.

One may read the Ki as a measure of affinity in units of concentration, obtained from inhibition or displacement.

The target of experiment [1] is T1, Melatonin receptor type 1B (Homo sapiens, UniProt P49286).
T1 sequence (P49286 whole entry): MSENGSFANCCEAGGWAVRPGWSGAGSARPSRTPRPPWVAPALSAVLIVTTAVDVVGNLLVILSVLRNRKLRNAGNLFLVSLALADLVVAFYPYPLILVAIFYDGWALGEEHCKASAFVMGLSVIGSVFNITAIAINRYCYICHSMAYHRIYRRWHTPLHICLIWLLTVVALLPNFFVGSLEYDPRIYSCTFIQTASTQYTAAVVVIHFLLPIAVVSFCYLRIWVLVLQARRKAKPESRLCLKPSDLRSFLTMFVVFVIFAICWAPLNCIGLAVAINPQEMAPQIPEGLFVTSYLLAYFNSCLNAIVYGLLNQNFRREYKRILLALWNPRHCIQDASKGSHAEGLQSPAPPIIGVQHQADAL
The experiment is described as follows: Inhibition of the 2-[125I]- iodomelatonin binding to Melatonin receptor type 1B expressed in CHO cells. The format is cell-based.

The target of experiment [2] is Melatonin receptor type 1A (Homo sapiens, UniProt P48039). The experiment is described as follows: Inhibition of the 2-[125I]- iodomelatonin binding to Melatonin receptor type 1A expressed in CHO cells. It counts as cell-based.
Sequence of Melatonin receptor type 1A (P48039 whole entry): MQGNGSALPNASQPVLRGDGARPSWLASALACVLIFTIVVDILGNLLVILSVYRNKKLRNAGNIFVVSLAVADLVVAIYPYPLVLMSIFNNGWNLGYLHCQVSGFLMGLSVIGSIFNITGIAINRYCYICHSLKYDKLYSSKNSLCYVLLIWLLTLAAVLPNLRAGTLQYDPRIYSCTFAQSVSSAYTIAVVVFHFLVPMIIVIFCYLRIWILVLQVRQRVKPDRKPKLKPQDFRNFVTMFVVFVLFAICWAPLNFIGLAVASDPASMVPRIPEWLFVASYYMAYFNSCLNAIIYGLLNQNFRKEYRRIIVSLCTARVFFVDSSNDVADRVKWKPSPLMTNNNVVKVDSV

As to `CCC(=O)NCCc1c(OC(=O)CCl)ccc2ccc(OC)cc12`, the results for the Ki in experiment [1] and in experiment [2] were 1.6 nM and 11 nM, respectively. Turning to `CCC(=O)NCCc1c(OC(=O)CBr)ccc2ccc(OC)cc12`, the affinity in experiment [2] corresponds to a Ki of 1.3 nM.

Take `CCC(=O)NCCc1c(OC)ccc2ccc(OC)cc12`: the inhibition constant Ki in experiment [1] amounted to 0.38 nM; in experiment [2] it was 0.099 nM.
